ChEMBL document CHEMBL1142596, “Diterpenes from Leucas aspera inhibiting prostaglandin-induced contractions” (J Nat Prod, 2006)
Active and inactive are the calls of the source. No cut-off for these calls is given here.

Legend:
Ileum [1] = assay: Inhibition of prostaglandin E1-induced contraction in Hartley guinea pig ileum at 126 umol by modified Magnus assay; format: functional, tissue-based; details: Cavia porcellus
Ileum [2] = assay: Inhibition of prostaglandin E2-induced contraction in Hartley guinea pig ileum at 76 umol by modified Magnus assay; format: functional, tissue-based; details: Cavia porcellus
[3] = test system: Radical scavenging activity; assay: Antioxidant activity assessed as DPPH-radical scavenging activity; format: functional
Ileum [4] = assay: Inhibition of prostaglandin E1-induced contraction in Hartley guinea pig ileum at 16 umol by modified Magnus assay; format: functional, tissue-based; details: Cavia porcellus
Ileum [5] = assay: Inhibition of prostaglandin E2-induced contraction in Hartley guinea pig ileum at 48 umol by modified Magnus assay; format: functional, tissue-based; details: Cavia porcellus
Ileum [6] = assay: Inhibition of prostaglandin E1-induced contraction in Hartley guinea pig ileum at 39 umol by modified Magnus assay; format: functional, tissue-based; details: Cavia porcellus
Ileum [7] = assay: Inhibition of prostaglandin E2-induced contraction in Hartley guinea pig ileum at 64 umol by modified Magnus assay; format: functional, tissue-based; details: Cavia porcellus

## C=C[C@]1(C)C=C2C(=O)C[C@H]3C(C)(C)[C@@H](O[C@@H]4O[C@H](CO)[C@@H](O)[C@H](O)[C@H]4O[C@@H]4O[C@H](CO[C@@H]5O[C@H](CO)[C@@H](O)[C@H](O)[C@H]5O)[C@@H](O)[C@H](O)[C@H]4O)CC[C@]3(C)[C@H]2CC1
Ileum [1]
  Activity: Active
Ileum [2]
  Activity: Active
[3]
  Activity: inactive

## C[C@@H]1CC(=O)[C@H]2C(C)(C)[C@@H](O)CC[C@]2(C)[C@@]12CC[C@@]1(CCOC1O)O2 (mixture of isomers)
[3]
  Activity: inactive

## O=C(N[C@H](COC(=O)[C@H](Cc1ccccc1)NC(=O)c1ccccc1)Cc1ccccc1)c1ccccc1
[3]
  Activity: inactive

## C=CC(C)(O)CC(O)[C@]1(C)C2=C([C@H](OC(C)=O)C[C@@H]1C)[C@@](C)(COC(C)=O)C(=O)CC2 (stereo partly drawn)
[3]
  Activity: inactive

## C=CC(C)(O)CC(OC(C)=O)[C@]1(C)C2=C([C@H](OC(C)=O)C[C@@H]1C)[C@@](C)(COC(C)=O)C(=O)CC2 (stereo partly drawn)
Ileum [1]
  Activity: Active
Ileum [2]
  Activity: Active
[3]
  Activity: inactive

## C=C[C@]1(C)C=C2C(=O)C[C@H]3C(C)(C)[C@@H](O[C@@H]4O[C@H](CO)[C@@H](O)[C@H](O)[C@H]4O[C@@H]4O[C@H](CO)[C@@H](O)[C@H](O)[C@H]4O)CC[C@]3(C)[C@H]2CC1
Ileum [4]
  Activity: Active
Ileum [5]
  Activity: Active
[3]
  Activity: inactive

## C=C[C@]1(C)C=C2C(=O)C[C@H]3C(C)(C)[C@@H](O[C@@H]4O[C@H](CO[C@@H]5O[C@H](CO)[C@@H](O)[C@H](O)[C@H]5O)[C@@H](O)[C@H](O)[C@H]4O[C@@H]4O[C@@H](C)[C@H](O)[C@@H](O)[C@H]4O)CC[C@]3(C)[C@H]2CC1
Ileum [6]
  Activity: Active
Ileum [7]
  Activity: Active
[3]
  Activity: inactive

## CC1(C)CC[C@]2(C(=O)O)CC[C@]3(C)C(=CC[C@@H]4[C@@]5(C)C[C@@H](O)[C@H](O)C(C)(C)[C@@H]5CC[C@]43C)[C@@H]2C1
Ileum [6]
  Activity: Active
Ileum [7]
  Activity: Active
[3]
  Activity: inactive
